Data set [1] is described as follows: Tumor uptake of Tc99m-medronate, biodistribution. The format is in vivo. The settings on record: nude mice, i.v. Here is the method:
Tumor uptake of Tc99m-medronate. To investigate accumulation of the bone scanning agent (Tc99m-medronate) into the subcutaneous tumors, nude mice were first inoculated subcutaneously with AB-12 or MDA-MB-231 cells (10^6 cells in 100 μl of sterile PBS) and the tumors were allowed to form for 3-4 weeks. Tc99m-medronate (MDP-Bracco™; Bracco Diagnostics Inc.; Princeton, N.J.) was then injected into the tail veins of the mice (˜800-1000 μCi per mouse) in 100 μl. High-resolution pinhole SPECT/CT imaging studies (X-SPECT system, GammaMedica, Inc.; Northridge, Calif.) and biodistribution analyses were performed in nude mice with xenografted rumors to measure in vivo tumor retention of Tc99 medronate following i.v. injection. For SPECT imaging, a total of 64 projections were acquired with a 30-sec acquisition time per projection, using a pinhole collimator with a 1-mm tungsten pinhole insert. […] The dose retention, or % Injected Dose per gram, (% ID/g) of each tissue was calculated by measuring the radioactivity in the tissue using a gamma counter, decay correcting the count rate data to the Tc99m-medronate injection time and normalizing to the total injected dose in the animal as well as the tissue weight. Each animal's dose was determined by measuring the dosing syringe (AtomLab 100 dose calibrator; Biodex Medical Systems; Shirley, N.Y.) before and after injecting the mouse. […]

The test system of data set [2] is J774 cells. Kind of data set: Cell viability, MTS-assay. It is filed as cell-based. The settings on record: for effect of added EGTA on the bisphosphonate's growth inhibitory effect: 1 mM EGTA, N-BP 10^−4 M or clodronate 10^−3 M. Here is the method:
(§1) Cell viability assays. Cells were plated on 96-well plates at the density of 1×10^3 cells in 100 μl per well in normal culture medium, with or without of the indicated concentrations of the various bisphosphonate combinations and or 1 mM CaCl2, 1 mM EGTA or vehicle and cultured for 48 h. Cell viability was assessed with 3-(4,5-dimethylthiazol-2-yl)-5-(3-carboxy tetrazolium, inner salt (MTS)-assays (CellTiter Aqueous One 96 from Promega; Madison, Wis.) according to the manufacturer's instructions. For each treatment, a PBS-control group was run simultaneously on the same plate. The results for each treatment were calculated as % of the corresponding PBS-group.
(Tetrazolium assays rely on reduction of a dye to a coloured formazan, in cell work by metabolically active cells.)

Data set [3] deals with unprenylated Rap1A in AB-12 mesothelioma cells. As to the kind of experiment: Western blot, unprenylated Rap1A (Example 2). It is filed as cell-based, mouse. The settings on record: AB-12 cells, 24 h; for effect on nitrogen-containing bisphosphonate-induced accumulation of unprenylated Rap1A: pyrophosphate-resembling : nitrogen-containing bisphosphonate ratio 100:1. Here is the method:
(§2) Western blot analysis. Cells were cultured on 6-well plates in normal culture medium until near confluency. The cells were then rinsed with sterile PBS and cultured for further 24 h in serum-tree culture medium, in the presence or absence of the indicated bisphosphonates. Some cultures were also treated with 25 μM geranylgeraniol (cold, all trans), 1.0 μg/ml LPS (Sigma; St. Louis, Mo.) 10 ng/ml IL-1β (R&D Systems; Minneapolis, Minn.) or TNF-α (R&D Systems). To study bisphosphonate effects on connexin-43 expression, the cells were cultured for 24 h in serum-free culture medium in the presence of the indicated bisphosphonates or PBS as a vehicle control. Culture medium was then discarded, the cells were quickly lysed and prepared into Western blot samples, as described in Merrell et al. (2000) Breast Cancer Res. Treat. 81, 231-241. After boiling the supernatants in reducing sodium docedyl sulfate (SDS) sample buffer, equal amounts of protein (˜20-50 μg) were loaded per lane and the samples were electrophoresed on 10% SDS polyacrylamide gel and transferred to a nitrocellulose membrane. To detect, unprenylated Rap1A, the blots were incubated overnight at 4° C. with the antibody SC-1482 (Santa Cruz Technology (San Diego, Calif.)), diluted 1:1000 in Tris-buffered saline, 0.1% (v/v) Tween-20 (TEST), and then with peroxidase-conjugated anti-goat serum (Pierce; Rockford, Ill.), diluted 1:1000 in TBST. Total Rap1 was detected from stripped blots in a similar fashion, with the antibody SC-65 (Santa Cruz Technology). The phosphorylation status of p38 was investigated using anti-phospho-p38 (Cell Signaling; Beverly, Mass.) and after stripping of the membrane, with anti-total p38 antibodies (Cell Signaling), according to the manufacturer's instructions. Expression of connexin-43 was detected with a rabbit anti-connexin-43 antibody (Zymed Laboratories, Inc.; San Francisco, Calif.), diluted 1:1000 in TBST. The protein bands were visualized by chemiluminescence using SuperSignal West Pico ECL kit (Pierce Biotechnology, Inc.; Rockford, Ill.).
On the technique in general: Immunoblotting shows a protein as a band on a membrane.

The subject of data set [4] is MDA-MB-231 cells. Kind of data set: Cell viability, MTS-assay. The format is cell-based, human. The settings on record: for effect of added Ca2+ on the bisphosphonate's growth inhibitory effect: 1 mM CaCl2, N-BP 10^−4 M or p-BP 10^−3 M. Here is the method:
as §1

Data set [5] deals with unprenylated Rap1A in MDA-MB-231 breast cancer cells. As to the kind of experiment: Western blot, unprenylated Rap1A (Example 2). The settings on record: MDA-MB-231 cells, 24 h; for effect on alendronate-induced accumulation of unprenylated Rap1A: 10^−4 M alendronate plus clodronate 10^−3 M, geranylgeraniol 25 μM, or cytokines/LPS. It is filed as cell-based, human. Here is the method:
as §2

The subject of data set [6] is AB-12 cells. As to the kind of experiment: Cell viability, MTS-assay. The format is cell-based, mouse. The settings on record: for effect of added Ca2+ on the bisphosphonate's growth inhibitory effect: 1 mM CaCl2, N-BP 10^−4 M or p-BP 10^−3 M. Here is the method:
as §1

The subject of data set [7] is p38 phosphorylation in AB-12 cells. As to the kind of experiment: Western blot, phosphorylation of p38 (Example 2). The format is cell-based, mouse. The settings on record: excess, added simultaneously. Here is the method: as §2, with “To detect, unprenylated Rap1A, the blots were incubated overnight at 4° C. with the antibody SC-1482 (Santa Cruz Technology (San Diego, Calif.)), diluted 1:1000 in Tris-buffered saline, 0.1% (v/v) Tween-20 (TEST), and then with peroxidase-conjugated anti-goat serum (Pierce; Rockford, Ill.), diluted 1:1000 in TBST.” left out, “The phosphorylation status of p38 was investigated using anti-phospho-p38 (Cell Signaling; Beverly, Mass.) and after stripping of the membrane, with anti-total p38 antibodies (Cell Signaling), according to the manufacturer's instructions.” left out, “The protein bands were visualized by chemiluminescence using SuperSignal West Pico ECL kit (Pierce Biotechnology, Inc.; Rockford, Ill.).” left out

The test system of data set [8] is p38 phosphorylation in MDA-MB-231 cells. Kind of data set: Western blot, phosphorylation of p38 (Example 2). The format is cell-based, human. The settings on record: 10^−3 M. Here is the method: as §2, with “To detect, unprenylated Rap1A, the blots were incubated overnight at 4° C. with the antibody SC-1482 (Santa Cruz Technology (San Diego, Calif.)), diluted 1:1000 in Tris-buffered saline, 0.1% (v/v) Tween-20 (TEST), and then with peroxidase-conjugated anti-goat serum (Pierce; Rockford, Ill.), diluted 1:1000 in TBST.” left out, “The phosphorylation status of p38 was investigated using anti-phospho-p38 (Cell Signaling; Beverly, Mass.) and after stripping of the membrane, with anti-total p38 antibodies (Cell Signaling), according to the manufacturer's instructions.” left out, “The protein bands were visualized by chemiluminescence using SuperSignal West Pico ECL kit (Pierce Biotechnology, Inc.; Rockford, Ill.).” left out

Take `O=P(O)(O)CP(=O)(O)O` [Tc99m-medronate, metal not drawn]: the “tissue with the highest accumulation: bones” value in data set [1] (% dose retention in various tissues) is “highest proportion”. Moreover, the “accumulation (% dose retention) in AB-12 mesothelioma tumors compared with MDA-MB-231 breast cancer tumors” value in data set [1] (tissues ~8 h after injection, % ID/g normalized to blood, P<0.05) is reported as “significantly higher”.
Take `NCCCC(O)(P(=O)(O)O)P(=O)(O)O` [alendronate]: the “effect of added EGTA on the bisphosphonate's growth inhibitory effect” value in data set [2] was “reversed”; in data set [4] (1 mM EGTA, N-BP 10^−4 M) it was “reversed”; in data set [6] (1 mM EGTA, N-BP 10^−4 M), “reversed”. For the same compound, the “accumulation of unprenylated Rap1A” value in data set [3] and in data set [5] was “dose-dependent accumulation” each time. Also, the cell viability result is recorded as “significant decrease in cell viability” in data set [4] (10^−4 M, P<0.001) and “significant decrease in cell viability” in data set [6] (10^−4 M, P<0.001).
As to `O=P(O)(O)C(Cl)(Cl)P(=O)(O)O` [clodronate], in data set [2], the “effect of added EGTA on the bisphosphonate's growth inhibitory effect” value was “reversed”. Also, in data set [2] (10^−3 M alone, P<0.001 vs PBS-control), the cell viability result is on record as “highest sensitivity”. For the same compound, the “cell viability in combination with 1 mM CaCl2” value in data set [2] (clodronate 10^−3 M + 1 mM CaCl2) was “toxic”. In data set [3], the “accumulation of unprenylated Rap1A” value is “no effect” and the “effect on nitrogen-containing bisphosphonate-induced accumulation of unprenylated Rap1A” value is listed as “completely blocked”. Besides, in data set [4], the “effect of added Ca2+ on the bisphosphonate's growth inhibitory effect” value is on record as “not”. For the same compound, in data set [5], the “effect on alendronate-induced accumulation of unprenylated Rap1A” value is reported as “reduced” and the “accumulation of unprenylated Rap1A” value is recorded as “no effect”. The “effect of added Ca2+ on the bisphosphonate's growth inhibitory effect” value in data set [6] is on record as “augmented”. In addition, the “effect on nitrogen-containing bisphosphonate (risedronate or zoledronate)-induced p38 phosphorylation” value in data set [7] is recorded as “blocked”. The “effect on zoledronate-induced (10^−4 M) p38 phosphorylation” value in data set [8] is “blocked”.
As for `CC(O)(P(=O)(O)O)P(=O)(O)O` [etidronate], the “accumulation of unprenylated Rap1A” value in data set [3] and in data set [5] was “no effect” each time. For the same compound, the “effect on nitrogen-containing bisphosphonate-induced accumulation of unprenylated Rap1A” value in data set [3] is on record as “completely blocked”. The “effect of added Ca2+ on the bisphosphonate's growth inhibitory effect” value in data set [4] is recorded as “not”; in data set [6] it was “augmented”. Also, in data set [7], the “effect on nitrogen-containing bisphosphonate (risedronate or zoledronate)-induced p38 phosphorylation” value was “blocked”. For the same compound, in data set [8], the “effect on zoledronate-induced (10^−4 M) p38 phosphorylation” value is given as “blocked”.
As for `CC(C)=CCC/C(C)=C/CC/C(C)=C/CC/C(C)=C/CO` [geranylgeraniol], in data set [5], the “effect on alendronate-induced accumulation of unprenylated Rap1A” value is recorded as “reduced”.
On the same count and under the same terms, the result for “IL-1β: cytokine (R&D Systems), molecule completely unrelated to bisphosphonates” reads “not blocked”; that for TNF-α, “not blocked”.

(Values after patent publication US20090075941A1, “TREATING NEOPLASMS” (THE UAB RESEARCH FOUNDATION, priority 2006, published 2009).)
